Test results published in patent publication US20260248783A1 (ASCLETIS BIOSCIENCE CO., LTD., priority 2021, published 2026).

Target: T1, PD-1/PD-L1 (Homo sapiens, UniProt Q9NZQ7)
T1 construct: Recombinant human PD-L1 protein (19-238) with a Histag at the C-terminus; purchased AcroBiosystems PD1-H5229 (PD-L1); PD1-H5257 (PD-1)
Experiment: PD-1/PD-L1 Homogeneous Time-Resolved Fluorescence (HTRF) Binding Assay
Details: PD-1/PD-L1 HTRF activity; 3 nM PD1, 10 nM PD-L1, 25° C.
In short: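 Human PD-L1 (19-238, His-tag) 10 nM and PD-1 (25-167, Fc-tag) 3 nM preincubated 40 min with inhibitor in PBS pH 7.4, 0.05% Tween-20, 0.1% BSA, 1% DMSO, 25 °C. Eu-anti-human IgG (1 nM) and anti-His-APC (20 nM) added, 60 min, 665/620 nm ratio; IC50 from percent control activity versus log concentration.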

T1 sequence (Q9NZQ7 19-238): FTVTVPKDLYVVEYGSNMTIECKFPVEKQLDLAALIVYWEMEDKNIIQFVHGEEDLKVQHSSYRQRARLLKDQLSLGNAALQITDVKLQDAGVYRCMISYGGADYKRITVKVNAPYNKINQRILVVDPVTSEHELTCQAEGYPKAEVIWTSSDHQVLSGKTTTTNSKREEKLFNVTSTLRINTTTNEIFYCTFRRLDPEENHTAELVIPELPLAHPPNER

For `Cc1cn2nc(-c3cccc(-c4cccc(-c5cc6c(=O)n(CCN7CCCCC7C(=O)O)c(C)cn6n5)c4Cl)c3Cl)cc2c(=O)n1CCN1CCCCC1C(=O)O` (stereo not drawn) [Compound 79, 1,1′-(((2,2′-dichloro-[1,1′-biphenyl]-3,3′-diyl)bis(6-methyl-4-oxopyrazolo[1,5-a]pyrazine-2,5(4H)-diyl))bis(ethane-2,1-diyl))bis(piperidine-2-carboxylic acid)], the IC50 was 10 to 100 nM.
Work on `Cc1cn2nc(-c3cccc(-c4cccc(-c5cc6c(=O)n(C[C@H]7CCNC7)c(C)cn6n5)c4Cl)c3Cl)cc2c(=O)n1C[C@H]1CCNC1` [Compound 81, 2,2′-(2,2′-dichloro-[1,1′-biphenyl]-3,3′-diyl)bis(6-methyl-5-(((S)-pyrrolidin-3-yl)methyl)pyrazolo[1,5-a]pyrazin-4(5H)-one)] yielded an IC50 of 10 to 100 nM.
With `Cc1cn2nc(-c3cccc(-c4cccc(-c5cc6c(=O)n(CCNC7(C(=O)O)COC7)c(C)cn6n5)c4Cl)c3Cl)cc2c(=O)n1CCNC1(C(=O)O)COC1` [Compound 82, 3,3′-((((2,2′-dichloro-[1,1′-biphenyl]-3,3′-diyl)bis(6-methyl-4-oxopyrazolo[1,5-a]pyrazine-2,5(4H)-diyl))bis(ethane-2,1-diyl))bis(azanediyl))bis(oxetane-3-carboxylic acid)] the IC50 was no less than 100 nM.
For `Cc1cn2nc(-c3cccc(-c4cccc(-c5cc6c(=O)n(CCN7CCNCC7)c(C)cn6n5)c4Cl)c3Cl)cc2c(=O)n1CCN1CCNCC1` [Compound 83, 2,2′-(2,2′-dichloro-[1,1′-biphenyl]-3,3′-diyl)bis(6-methyl-5-(2-(piperazin-1-yl)ethyl)pyrazolo[1,5-a]pyrazin-4(5H)-one)], the IC50 was no less than 100 nM.
`Cc1cn2nc(-c3cccc(-c4cccc(-c5cc6c(=O)n(CCN7C[C@@H](O)CC[C@H]7C(=O)O)c(C)cn6n5)c4Cl)c3Cl)cc2c(=O)n1CCN1C[C@@H](O)CC[C@H]1C(=O)O` [Compound 84, (2S,2'S,5S,5'S)-1,1′-(((2,2′-dichloro-[1,1′-biphenyl]-3,3′-diyl)bis(6-methyl-4-oxopyrazolo[1,5-a]pyrazine-2,5(4H)-diyl))bis(ethane-2,1-diyl))bis(5-hydroxypiperidine-2-carboxylic acid)] showed an IC50 of no less than 100 nM.
`Cc1cn2nc(-c3cccc(-c4cccc(-c5cc6c(=O)n(CCN7CCOCC7C(=O)O)c(C)cn6n5)c4Cl)c3Cl)cc2c(=O)n1CCN1CCOCC1C(=O)O` (stereo not drawn) [Compound 86, 4,4′-(((2,2′-dichloro-[1,1′-biphenyl]-3,3′-diyl)bis(6-methyl-4-oxopyrazolo[1,5-a]pyrazine-2,5(4H)-diyl))bis(ethane-2,1-diyl))bis(morpholine-3-carboxylic acid)] gave an IC50 of no less than 100 nM.
With `Cc1cn2nc(-c3cccc(-c4cccc(-c5cc6c(=O)n(CC(C)N[C@@H](CO)C(=O)O)c(C)cn6n5)c4Cl)c3Cl)cc2c(=O)n1CC(C)N[C@@H](CO)C(=O)O` (stereo partly drawn) [Compound 87, (2S,2'S)-2,2′-((((2,2′-dichloro-[1,1′-biphenyl]-3,3′-diyl)bis(6-methyl-4-oxopyrazolo[1,5-a]pyrazine-2,5(4H)-diyl))bis(propane-1,2-diyl))bis(azanediyl))bis(3-hydroxypropanoic acid)] the IC50 was no less than 100 nM.
For `Cc1cn2nc(-c3cccc(-c4cccc(-c5cc6c(=O)n(CCNC7(C(=O)O)CCC(O)CC7)c(C)cn6n5)c4Cl)c3Cl)cc2c(=O)n1CCNC1(C(=O)O)CCC(O)CC1` (stereo not drawn) [Compound 88, 1,1′-((((2,2′-dichloro-[1,1′-biphenyl]-3,3′-diyl)bis(6-methyl-4-oxopyrazolo[1,5-a]pyrazine-2,5(4H)-diyl))bis(ethane-2,1-diyl))bis(azanediyl))bis(4-hydroxycyclohexane-1-carboxylic acid)], the IC50 was 10 to 100 nM.
Work on `Cc1cn2nc(-c3cccc(-c4cccc(-c5cc6c(=O)n(C[C@@H]7C[C@@H](O)CN7)c(C)cn6n5)c4Cl)c3Cl)cc2c(=O)n1C[C@@H]1C[C@@H](O)CN1` [Compound 92, 2,2′-(2,2′-dichloro-[1,1′-biphenyl]-3,3′-diyl)bis(5-(((2S,4R)-4-hydroxypyrrolidin-2-yl)methyl)-6-methylpyrazolo[1,5-a]pyrazin-4(5H)-one)] yielded an IC50 of less than 10 nM.
